In PMC5845896, “A Novel Bifunctional Amino Acid Racemase With Multiple Substrate Specificity, MalY From Lactobacillus sakei LT-13: Genome-Based Identification and Enzymological Characterization” (Frontiers in Microbiology, 2018):
Changes are numbered by the printed parent chain.

Experiments:
[1] = molecular target: MalY from Lactobacillus sakei LT-13 (wild type) (Lactobacillus sakei LT-13); assay: SEC; Superdex 200 Increase 10/300 GL, 20 mM potassium phosphate pH 7.5 with 0.15 M KCl, 0.75 mL/min; molecular weight estimated against markers (thyroglobulin, apoferritin, β-amylase, BSA, carbonic anhydrase)
[2] = molecular target: T1, Ls-MalY (Lactobacillaceae, UniProt A0A223K4L6, Y123A); assay: UV-vis absorption spectrum, hydroxylamine treatment; assay type: binding; conditions: 20 mM potassium phosphate pH 7.5; as purified
T1 construct: full length in pET-22b(+), C-terminal hexa-histidine tag, E. coli BL21(DE3), subunit ~46 kDa with tag, 281 kDa by gel filtration, homohexamer
T1 sequence (A0A223K4L6 1-391 Y123A): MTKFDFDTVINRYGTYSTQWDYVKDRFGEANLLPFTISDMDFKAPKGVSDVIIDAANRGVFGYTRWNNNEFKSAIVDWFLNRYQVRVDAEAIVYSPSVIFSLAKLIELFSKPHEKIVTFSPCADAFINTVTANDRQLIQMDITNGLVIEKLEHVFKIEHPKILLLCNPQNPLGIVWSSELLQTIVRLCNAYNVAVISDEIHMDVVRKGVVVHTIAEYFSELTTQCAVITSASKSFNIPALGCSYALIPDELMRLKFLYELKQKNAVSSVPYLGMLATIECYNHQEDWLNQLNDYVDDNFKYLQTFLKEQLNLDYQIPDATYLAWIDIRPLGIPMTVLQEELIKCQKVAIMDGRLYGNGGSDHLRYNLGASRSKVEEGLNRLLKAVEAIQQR

[3] = molecular target: T2, Ls-MalY (Lactobacillaceae, UniProt A0A223K4L6); assay: UV-vis absorption spectrum ([…] nm peak), hydroxylamine treatment; assay type: binding; conditions: 20 mM potassium phosphate pH 7.5; as purified; covalent, K233
T2 construct: full length in pET-22b(+), C-terminal hexa-histidine tag, E. coli BL21(DE3), subunit ~46 kDa with tag, 281 kDa by gel filtration, homohexamer
T2 sequence (A0A223K4L6 1-391): T1 sequence (A0A223K4L6 1-391 Y123A) with A123Y

stoichiometry N [1] | Compound | UV-vis absorption spectrum, hydroxylamine treatment [2] | UV-vis absorption spectrum (420 nm peak), hydroxylamine treatment [3]
6 | MalY from Lactobacillus sakei LT-13 (wild type) (enzyme) |  | 
 | Cc1ncc(COP(=O)(O)O)c(C=O)c1O [PLP] | These spectral features suggest that the Y123A mutant bound PLP | the absorption peak was abolished by treatment with hydroxylamine (Figure 3A), suggesting that Ls-MalY bound PLP
